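Where inhibition never reached the appropriate level, the endpoint shown equals the highest concentration tested. Otherwise, values were interpolated linearly from a five-concentration, 48-hour dose response in 96-well plates. GI50 = concentration required for 50% inhibition of growth.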 The source made the active and inactive calls. Rule as the data show it: active = GI50 up to about 1.1 µM and inactive = higher.
Assays:
Assay in all cases: DTP human tumour cell line panel, 48 h
SW-620 = test system: SW-620
HCT-15 = test system: HCT-15
SF-268 = test system: SF-268
OVCAR-5 = test system: OVCAR-5
A498 = test system: A498
U-251 = test system: U-251
CAKI-1 = test system: CAKI-1
SK-MEL-28 = test system: SK-MEL-28
TK-10 = test system: TK-10
SK-MEL-5 = test system: SK-MEL-5
SNB-19 = test system: SNB-19
HOP-62 = test system: HOP-62
SF-539 = test system: SF-539
HT-29 = test system: HT-29
SR = test system: SR

Structure (SMILES)	GI50 (SW-620)	GI50 (HCT-15)	GI50 (SF-268)	GI50 (OVCAR-5)	GI50 (A498)	GI50 (U-251)	GI50 (CAKI-1)	GI50 (SK-MEL-28)	GI50 (TK-10)	GI50 (SK-MEL-5)	GI50 (SNB-19)	GI50 (HOP-62)	GI50 (SF-539)	GI50 (HT-29)	GI50 (SR)
Cc1nc(-n2nc(-c3ccccc3)cc2-c2ccccc2)sc1C(=O)/C=C/c1ccccc1	59 µM (inactive)	> 100 µM	> 100 µM (inactive)	> 100 µM (inactive)	> 100 µM (inactive)	> 100 µM (inactive)	9.79 µM (inactive)	> 100 µM (inactive)	> 100 µM (inactive)	23.5 µM (inactive)	> 100 µM (inactive)	> 100 µM (inactive)	> 100 µM (inactive)	> 100 µM (inactive)	–
CCN(CC)CCNC(=O)c1cccc2cc3ccccc3nc12	3.49 µM (inactive)	4.47 µM	6.84 µM (inactive)	6.21 µM (inactive)	6.92 µM (inactive)	5.01 µM (inactive)	4.48 µM (inactive)	9.71 µM (inactive)	4.79 µM (inactive)	4.52 µM (inactive)	7.45 µM (inactive)	10.4 µM (inactive)	4.49 µM (inactive)	3.95 µM (inactive)	–
NNC(=O)C(=O)N/N=C(\CCCC(=O)Nc1ccc(Cl)cc1)CC(=O)c1ccc(F)cc1	> 100 µM (inactive)	–	> 100 µM (inactive)	> 100 µM (inactive)	2.66 µM (inactive)	> 100 µM (inactive)	–	> 100 µM (inactive)	> 100 µM (inactive)	> 100 µM (inactive)	> 100 µM (inactive)	> 100 µM (inactive)	–	83.2 µM (inactive)	–
O=C(Nc1ccc([N+](=O)[O-])cc1)C1C(=O)C(=O)N(c2ccc([N+](=O)[O-])cc2)C1=O (stereo not given)	17.6 µM (inactive)	61.1 µM	> 100 µM (inactive)	> 100 µM (inactive)	> 100 µM (inactive)	> 100 µM (inactive)	74.6 µM (inactive)	> 100 µM (inactive)	> 100 µM (inactive)	12 µM (inactive)	> 100 µM (inactive)	> 100 µM (inactive)	94.8 µM (inactive)	> 100 µM (inactive)	59 µM (inactive)
CC1CCC(=O)NCCCCC(=O)N1 (stereo not given)	> 100 µM (inactive)	–	> 100 µM (inactive)	> 100 µM (inactive)	> 100 µM (inactive)	> 100 µM (inactive)	> 100 µM (inactive)	> 100 µM (inactive)	> 100 µM (inactive)	> 100 µM (inactive)	> 100 µM (inactive)	> 100 µM (inactive)	> 100 µM (inactive)	> 100 µM (inactive)	> 100 µM (inactive)
CCOC(=O)c1cc2c(nc1N)-c1ncccc1CC2	59.8 µM (inactive)	32 µM	> 100 µM (inactive)	> 100 µM (inactive)	76.7 µM (inactive)	43.8 µM (inactive)	> 100 µM (inactive)	36.6 µM (inactive)	> 100 µM (inactive)	38.9 µM (inactive)	59.7 µM (inactive)	83.8 µM (inactive)	> 100 µM (inactive)	16.4 µM (inactive)	18.7 µM (inactive)
O=C(c1cc2ccccc2o1)N(Cc1ccccc1)c1ccccc1	15.8 µM (inactive)	18 µM	41.4 µM (inactive)	30.3 µM (inactive)	34.4 µM (inactive)	–	19.5 µM (inactive)	36.9 µM (inactive)	33.6 µM (inactive)	16.1 µM (inactive)	35.9 µM (inactive)	30.5 µM (inactive)	–	22.8 µM (inactive)	26.9 µM (inactive)
NC(=O)N/N=C(\Cc1nc2ccc(C(=O)c3ccccc3)cc2nc1O)C(=O)Nc1ccc(Br)cc1	> 100 µM (inactive)	> 100 µM	> 100 µM (inactive)	> 100 µM (inactive)	> 100 µM (inactive)	> 100 µM (inactive)	> 100 µM (inactive)	> 100 µM (inactive)	> 100 µM (inactive)	> 100 µM (inactive)	> 100 µM (inactive)	> 100 µM (inactive)	> 100 µM (inactive)	> 100 µM (inactive)	> 100 µM (inactive)
COC(=O)CCC(=O)Nc1cc(C)ccc1C	> 100 µM (inactive)	–	–	–	> 100 µM (inactive)	> 100 µM (inactive)	> 100 µM (inactive)	> 100 µM (inactive)	> 100 µM (inactive)	> 100 µM (inactive)	> 100 µM (inactive)	> 100 µM (inactive)	> 100 µM (inactive)	> 100 µM (inactive)	–
O=C(CC1C(=O)Nc2ccccc2[S+]1[O-])Nc1cc(Cl)ccc1Cl (stereo not given)	> 100 µM (inactive)	> 100 µM	> 100 µM (inactive)	> 100 µM (inactive)	> 100 µM (inactive)	> 100 µM (inactive)	> 100 µM (inactive)	> 100 µM (inactive)	> 100 µM (inactive)	> 100 µM (inactive)	> 100 µM (inactive)	–	> 100 µM (inactive)	> 100 µM (inactive)	> 100 µM (inactive)
CCc1cccc(C)c1NC(=O)CCc1nnc(S)[nH]1	> 100 µM (inactive)	> 100 µM	> 100 µM (inactive)	> 100 µM (inactive)	–	> 100 µM (inactive)	> 100 µM (inactive)	> 100 µM (inactive)	> 100 µM (inactive)	> 100 µM (inactive)	> 100 µM (inactive)	> 100 µM (inactive)	> 100 µM (inactive)	> 100 µM (inactive)	> 100 µM (inactive)
COc1cccc(NC(=S)Nn2c(C)nc3ccccc3c2=O)c1	> 100 µM (inactive)	> 100 µM	> 100 µM (inactive)	> 100 µM (inactive)	> 100 µM (inactive)	> 100 µM (inactive)	> 100 µM (inactive)	> 100 µM (inactive)	> 100 µM (inactive)	> 100 µM (inactive)	–	> 100 µM (inactive)	> 100 µM (inactive)	> 100 µM (inactive)	> 100 µM (inactive)
CC(C)c1cccc(C(C)C)c1NC(=O)C(=O)C(C(=O)c1ccccc1-c1ccccc1)C1OC(=O)c2ccccc21 (stereo not given)	19.9 µM (inactive)	18.4 µM	21.7 µM (inactive)	18.5 µM (inactive)	–	12.8 µM (inactive)	30.1 µM (inactive)	20.1 µM (inactive)	26.5 µM (inactive)	15.5 µM (inactive)	16.8 µM (inactive)	–	12.6 µM (inactive)	17.9 µM (inactive)	22.6 µM (inactive)
CC(=O)CCCCCCCCCCCC[C@@H]1CC[C@H](C)[C@H](O)N1	> 100 µM (inactive)	> 100 µM	> 100 µM (inactive)	> 100 µM (inactive)	–	> 100 µM (inactive)	> 100 µM (inactive)	> 100 µM (inactive)	> 100 µM (inactive)	46.9 µM (inactive)	> 100 µM (inactive)	> 100 µM (inactive)	–	38.3 µM (inactive)	90.4 µM (inactive)
CCCCNC1=C(C(=O)OCC)/C(=N/NC(=O)c2ccccc2O)CO1	39 µM (inactive)	–	6.97 µM (inactive)	59.7 µM (inactive)	> 100 µM (inactive)	20.1 µM (inactive)	8.53 µM (inactive)	18.5 µM (inactive)	98.4 µM (inactive)	29.2 µM (inactive)	> 100 µM (inactive)	17.6 µM (inactive)	11.8 µM (inactive)	–	–
O=C(O)c1c[nH]cc1C(=O)O	> 100 µM (inactive)	> 100 µM	> 100 µM (inactive)	> 100 µM (inactive)	> 100 µM (inactive)	> 100 µM (inactive)	> 100 µM (inactive)	–	> 100 µM (inactive)	> 100 µM (inactive)	> 100 µM (inactive)	> 100 µM (inactive)	> 100 µM (inactive)	> 100 µM (inactive)	> 100 µM (inactive)
Cc1ccc(C(=O)N2CCCCC2)cc1/N=N/N(C)C	> 100 µM (inactive)	> 100 µM	> 100 µM (inactive)	> 100 µM (inactive)	> 100 µM (inactive)	–	> 100 µM (inactive)	> 100 µM (inactive)	> 100 µM (inactive)	> 100 µM (inactive)	> 100 µM (inactive)	> 100 µM (inactive)	> 100 µM (inactive)	> 100 µM (inactive)	> 100 µM (inactive)
OCc1ccc2[n+](c1)CCC1c3ccccc3NC21 (stereo not given)	> 300 µM (inactive)	> 300 µM	167 µM (inactive)	–	–	> 300 µM (inactive)	> 300 µM (inactive)	> 300 µM (inactive)	> 300 µM (inactive)	86.9 µM (inactive)	> 300 µM (inactive)	> 300 µM (inactive)	> 300 µM (inactive)	> 300 µM (inactive)	> 300 µM (inactive)
CC1CC(=O)CC[C@@H]1OCc1ccccc1 (stereo not given in full)	> 100 µM (inactive)	> 100 µM	> 100 µM (inactive)	> 100 µM (inactive)	> 100 µM (inactive)	> 100 µM (inactive)	> 100 µM (inactive)	–	> 100 µM (inactive)	> 100 µM (inactive)	> 100 µM (inactive)	> 100 µM (inactive)	> 100 µM (inactive)	> 100 µM (inactive)	–
Cc1cc2c(=O)n(-c3ccc(F)cc3)c(C)nc2c(C(=O)O)c1C	> 100 µM (inactive)	> 100 µM	> 100 µM (inactive)	> 100 µM (inactive)	> 100 µM (inactive)	> 100 µM (inactive)	> 100 µM (inactive)	> 100 µM (inactive)	> 100 µM (inactive)	> 100 µM (inactive)	–	> 100 µM (inactive)	> 100 µM (inactive)	> 100 µM (inactive)	> 100 µM (inactive)
